Measured values as given in patent US20100004159A1, “SUBSTITUTED IMIDAZOLONE DERIVATIVES, PREPARATIONS AND USES” (GENFIT, priority 2006, published 2010).

melting point [°C] | SMILES
50 to 53 | CCCCC1=NC2(CCCC2)C(=O)N1CCc1ccc(OC(C)(C)C(=O)O)cc1 [Compound 3, 2-butyl-1-[2-(4-((1-carboxy-1,1-dimethylmethyl)oxy)phenyl)ethyl]-4-spirocyclopentyl-1H-imidazol-5(4H)-one]
74 to 80 | CCCCC1=NC2(CCCC2)C(=O)N1Cc1ccc(-c2ccccc2OC(C)(C)C(=O)O)cc1 [Compound 6, 2-butyl-1-[(2′-((1-carboxy-1,1-dimethylmethyl)oxy)biphenyl-4-yl)methyl]-4-spirocyclopentyl-1H-imidazol-5(4H)-one]
85 to 90 | CCCCC1=NC2(CCCC2)C(=O)N1Cc1ccc(C(=O)c2ccccc2OC(C)(C)C(=O)O)cc1 [Compound 7, 2-butyl-1-[[4-[(2-((1-carboxyl-1,1-dimethylmethyl)oxy)phenyl)carbonyl]phenyl]methyl]-4-spirocyclopentyl-1H-imidazol-5(4H)-one]
90 to 99 | CCCCC1=NC2(CCCC2)C(=O)N1Cc1ccc(C(=O)c2ccc(OC(C)(C)C(=O)O)cc2)cc1 [Compound 9, 2-butyl-1-[[4-[(4-((1-carboxyl-1,1-dimethylmethyl)oxy)phenyl)carbonyl]phenyl]methyl]-4-spirocyclopentyl-1H-imidazol-5(4H)-one]
68 to 75 | CCCCC1=NC2(CCCCC2)C(=O)N1Cc1ccc(C(=O)c2cccc(OC(C)(C)C(=O)O)c2)cc1 [Compound 11, 2-butyl-1-[[4-[(3-((1-carboxyl-1,1-dimethylmethyl)oxy)phenyl)carbonyl]phenyl]methyl]-4-spirocyclohexyl-1H-imidazol-5(4H)-one]
174 to 176 | CCCCC1=NC2(CCCC2)C(=O)N1Cc1ccc(-c2cc(OC(C)(C)C(=O)O)ccc2Br)cc1 [Compound 12, 1-[(6′-bromo-3′-((1-carboxy-1,1-dimethylmethyl)oxy)biphenyl-4-yl)methyl]-2-butyl-4-spirocyclopentyl-1H-imidazol-5(4H)-one]
167 to 169 | CCCCC1=NC(C)(C)C(=O)N1Cc1ccc(C(=O)c2cccc(OC(C)(C)C(=O)O)c2)cc1 [Compound 14, 2-butyl-1-[[4-[(3-((1-carboxyl-1,1-dimethylmethyl)oxy)phenyl)carbonyl]phenyl]methyl]-4,4-dimethyl-1H-imidazol-5(4H)-one]
115 to 120 | CCCCC1=NC(c2ccccc2)C(=O)N1Cc1ccc(C(=O)c2cccc(OC(C)(C)C(=O)O)c2)cc1 (stereo not drawn) [Compound 15, 2-butyl-1-[[4-[(3-((1-carboxy-1,1-dimethylmethyl)oxy)phenyl)carbonyl]phenyl]methyl]-4-phenyl-1H-imidazol-5(4H)-one]
134 to 190 | CCCC1=NC2(CCCC2)C(=O)N1Cc1ccc(-c2cccc(OC(C)(C)C(=O)O)c2)cc1 [Compound 16, 1-[(3′-((1-carboxy-1,1-dimethylmethyl)oxy)biphenyl-4-yl)methyl]-2-propyl-4-spirocyclopentyl-1H-imidazol-5(4H)-one]
81 to 88 | CC1=NC2(CCCC2)C(=O)N1Cc1ccc(-c2cccc(OC(C)(C)C(=O)O)c2)cc1 [Compound 18, 1-[(3′-((1-carboxy-1,1-dimethylmethyl)oxy)biphenyl-4-yl)methyl]-2-methyl-4-spirocyclopentyl-1H-imidazol-5(4H)-one]
215 to 217 | CCCCC1=NC(c2ccccc2)C(=O)N1Cc1ccc(C(=O)c2ccc(OC(C)(C)C(=O)O)cc2)cc1 (stereo not drawn) [Compound 20, 2-butyl-1-[[4-[(4-((1-carboxy-1,1-dimethylmethyl)oxy)phenyl)carbonyl]phenyl]methyl]-4-phenyl-1H-imidazol-5(4H)-one]
170 to 172 | CCCCC1=NC2(CCCCC2)C(=O)N1Cc1ccc(-c2cc(OC(C)(C)C(=O)O)ccc2Br)cc1 [Compound 22, 1-[(6′-bromo-3′-((1-carboxy-1,1-dimethylmethyl)oxy)biphenyl-4-yl)methyl]-2-butyl-4-spirocyclohexyl-1H-imidazol-5(4H)-one]
128 to 130 | CCCCC1=NC2(CCCC2)C(=O)N1Cc1ccc(-c2cccc(OCC#N)c2)cc1 [Compound 23, 2-butyl-1-[(3′-(cyanomethoxy)biphenyl-4-yl)methyl]-4-spirocyclopentyl-1H-imidazol-5(4H)-one]
199 to 201 | CCCCC1=NC(c2ccccc2)C(=O)N1Cc1ccc(-c2cc(Br)ccc2OC(C)(C)C(=O)O)cc1 (stereo not drawn) [Compound 26, 1-[(5′-bromo-2′-((1-carboxy-1,1-dimethylmethyl)oxy)biphenyl-4-yl)methyl]-2-butyl-4-phenyl-1H-imidazol-5(4H)-one]
213 to 216 | CC(C)CC1=NC2(CCCC2)C(=O)N1Cc1ccc(-c2cccc(OC(C)(C)C(=O)O)c2)cc1 [Compound 27, 1-[(3′-((1-carboxy-1,1-dimethylmethyl)oxy)biphenyl-4-yl)methyl]-2-(2-methyl)propyl-4-spirocyclopentyl-1H-imidazol-5(4H)-one]
149 to 153 | CC(C)(Oc1cccc(-c2ccc(CN3C(=O)C4(CCCC4)N=C3Cc3ccccc3)cc2)c1)C(=O)O [Compound 28, 2-benzyl-1-[(3′-((1-carboxy-1,1-dimethylmethyl)oxy)biphenyl-4-yl)methyl]-4-spirocyclopentyl-1H-imidazol-5(4H)-one]
175 to 177 | CC(C)(Oc1cccc(-c2ccc(CN3C(=O)C4(CCCC4)N=C3C3CC3)cc2)c1)C(=O)O [Compound 29, 1-[(3′-((1-carboxy-1,1-dimethylmethyl)oxy)biphenyl-4-yl)methyl]-2-cyclopropyl-4-spirocyclopentyl-1H-imidazol-5(4H)-one]

melting point [°C] | SMILES
147 to 149 | CCCCC1=NC2(CCCC2)C(=O)N1Cc1ccc(Cc2ccc(OC(C)(C)C(=O)O)cc2)cc1 [Compound 31]
82 to 85 | CCCCC1=NC2(CCCCC2)C(=O)N1Cc1ccc(-c2cccc(OCC(=O)O)c2)cc1 [Compound 52, 2-butyl-1-[(3′-((1-carboxymethyl)oxy)biphenyl-4-yl)methyl]-4-spirocyclohexyl-1H-imidazol-5(4H)-one]
170 | CCCCC1=NC2(CCCCC2)C(=O)N1Cc1ccc(-c2cccc(OC(CC)C(=O)O)c2)cc1 (stereo not drawn) [Compound 54, 2-butyl-1-[(3′-((1-carboxy-1-ethylmethyl)oxy)biphenyl-4-yl)methyl]-4-spirocyclohexyl-1H-imidazol-5(4H)-one]
105 | CCCCC1=NC2(CCCCC2)C(=O)N1Cc1ccc(-c2cccc(OC(C(=O)O)C(C)C)c2)cc1 (stereo not drawn) [Compound 55, 2-butyl-1-[(3′-((1-carboxy-1-(1,1-dimethylmethyl)methyl)oxy)-biphenyl-4-yl)methyl]-4-spirocyclohexyl-1H-imidazol-5(4H)-one]
102 to 105 | CCCCC1=NC2(CCCCC2)C(=O)N1Cc1ccc(-c2cc(OCC(=O)O)ccc2F)cc1 [Compound 56, 2-butyl-1-[(3′-((1-carbonylmethyl)oxy)-6′-fluoro-biphenyl-4-yl)methyl]-4-spirocyclohexyl-1H-imidazol-5(4H)-one]
96 | CCCCC1=NC2(CCCCC2)C(=O)N1Cc1ccc(-c2cc(OC(C)C(=O)O)ccc2F)cc1 (stereo not drawn) [Compound 57, 2-butyl-1-[(3′-((1-carboxy-1-methylmethyl)oxy)-6′-fluoro-biphenyl-4-yl)methyl]-4-spirocyclohexyl-1H-imidazol-5(4H)-one]
95 | CCCCC1=NC2(CCCCC2)C(=O)N1Cc1ccc(-c2cc(OC(C(=O)O)C(C)C)ccc2F)cc1 (stereo not drawn) [Compound 59, 2-butyl-1-[(3′-((1-carboxy-1-(1,1-dimethylmethyl)-methyl)oxy)-6′-fluoro-biphenyl-4-yl)methyl]-4-spirocyclohexyl-1H-imidazol-5(4H)-one]
72 | CCCCC1=NC2(CCCCC2)C(=O)N1Cc1ccc(-c2cc(OC(C)(C)C(=O)O)ccc2F)cc1 [Compound 60, 2-butyl-1-[(3′-((1-carboxy-1,1-dimethylmethyl)oxy)-6′-fluoro-biphenyl-4-yl)methyl]-4-spirocyclohexyl-1H-imidazol-5(4H)-one]
65 | CCCCC1=NC(CC)(CC)C(=O)N1Cc1ccc(-c2cccc(OC(C(=O)O)C(C)C)c2)cc1 (stereo not drawn) [Compound 63, 2-butyl-1-[(3′-((1-carboxy-1-(1,1-dimethylmethyl)methyl)oxy)-biphenyl-4-yl)methyl]-4,4-diethyl-1H-imidazol-5(4H)-one]
184 | CCCCC1=NC(CC)(CC)C(=O)N1Cc1ccc(-c2cccc(OC(CC)C(=O)O)c2)cc1 (stereo not drawn) [Compound 64, 2-butyl-1-[(3′-((1-carboxy-1-ethylmethyl)oxy)biphenyl-4-yl)methyl]-4,4-diethyl-1H-imidazol-5(4H)one]
144 | CCCCC1=NC(CC)(CC)C(=O)N1Cc1ccc(-c2cccc(OC(C)(C)C(=O)O)c2)cc1 [Compound 65, 2-butyl-1-[(3′-((1-carboxy-1,1-dimethylmethyl)oxy)biphenyl-4-yl)methyl]-4,4-diethyl-1H-imidazol-5(4H)one]
186 | CCCCC1=NC(CC)(CC)C(=O)N1Cc1ccc(-c2cccc(OC(C)C(=O)O)c2)cc1 (stereo not drawn) [Compound 66, 2-butyl-1-[(3′-((1-carboxy-1-methylmethyl)oxy)biphenyl-4-yl)methyl]-4,4-diethyl-1H-imidazol-5(4H)one]
184 | CCCCC1=NC2(CCCCC2)C(=O)N1Cc1ccc(-c2cccc(OC3(C(=O)O)CCC3)c2)cc1 [Compound 67, 2-butyl-1-[(3′-((1-carboxy-1-spirocyclobutylmethyl)oxy)biphenyl-4-yl)methyl]-4-spirocyclohexyl-1H-imidazol-5(4H)-one]
65 | CCCCC1=NC(CC)(CC)C(=O)N1Cc1ccc(-c2cc(OC(C(=O)O)C(C)C)ccc2F)cc1 (stereo not drawn) [Compound 68, 2-butyl-1-[(3′-((1-carboxy-1-(1,1-dimethylmethyl)methyl)oxy)-6′-fluoro-biphenyl-4-yl)methyl]-4,4-diethyl-1H-imidazol-5(4H)one]
62 | CCCCC1=NC(CC)(CC)C(=O)N1Cc1ccc(-c2cc(OC(C)(C)C(=O)O)ccc2F)cc1 [Compound 69]
81 | CCCCC1=NC2(CCCCC2)C(=O)N1Cc1ccc(-c2cccc(OC(C)C(=O)O)c2)c(C)c1 (stereo not drawn) [Compound 70, 2-butyl-1-[(3′-((1-carboxy-1-methylmethyl)oxy)-3-methyl-biphenyl-4-yl)methyl]-4-spirocyclohexyl-1H-imidazol-5(4H)one]
